Where a name gives a salt, the structure may show the parent alone.
Tests used:
[1] = tested on: rabbit heart and vasculature; assay: Anesthetized rabbit pressure-volume hemodynamics with or without esmolol or MRS-1754; format: in vivo; conditions: for effect of blocker on Compound 1 responses: atrially paced, fixed heart rate; for impact of inhibitor pre-treatment alone on cardiovascular hemodynamics: rabbit, in vivo
Source text: Cyclic AMP is generated largely by transmembrane adenylyl cyclases activated via stimulatory G protein (Gs), with β-adrenergic, adenosine (primarily A2B), glucagon, prostanoids, histamine, and serotonin all coupling to Gs in cardiomyocytes. The present studies focus on beta-adrenergic and adenosine receptors, and for the latter, concentrated on the A2B receptor, which has been reported to directly stimulate cAMP-dependent contractility. […] Relaxation changes are also modest with LV preload (end-diastolic and volume) unaltered; however, the combined vasodilator-inotropic response doubled ventricular/arterial coupling ratio, Ees/Ea.
New Zealand White rabbits (male, 2-3 kg) are sedated with 35 mg/kg ketamine and 5 mg/kg xylazine, intubated and ventilated (Model 683, Harvard Apparatus, Holliston, Mass.), with anesthesia maintained with isoflurane inhalation (1-2%). A pressure-volume catheter (SPR-894, Millar, Inc., Houston, Tex.) is inserted via the common carotid artery and advanced to the LV apex, and a 2-Fr pacing catheter is positioned in the right atrium via the right jugular vein to provide atrial pacing. […] The parallel conductance is determined by the hypertonic saline injection method. Rabbits are infused with 6% hetastarch in saline during the procedure to stabilize arterial pressure.

adult rabbit myocytes = assay: Contraction and calcium transients in isolated rabbit cardiomyocytes; format: cell-based; conditions: for decay kinetics / relaxation times / peak-Ca2+ transient / percent sarcomere shortening: agent alone: Cil 1 μM, Compound 1 1 μM, Iso non-saturating dose
Protocol: To test whether PDE1 inhibition directly impacts cardiomyocyte contraction and calcium transients, studies are carried out on normal adult rabbit myocytes. […] As PDE1 requires sufficient cAMP and Ca^2+ to be impactful, a dose response was performed to the adenylate cyclase activator, forskolin (FSK) to determine the lowest dose producing a modest but significant inotropic effect (1 μM).
Rabbit myocytes were isolated to determine the effect of PDE1 inhibition on cardiomyocyte contraction and whole cell Ca2+ transients, and to compare the results to those with a PDE3 inhibitor, cilostamide (Cil, 1 μM).
An alternative approach to augmenting cAMP independent of […] is to directly stimulate adenylate cyclase using forskolin (Fsk). A dose response study was carried out to identify a non-saturating Fsk dose that still generated significant inotropic effects (1 μM).

myocyte cAMP = assay: Whole cell cAMP in isolated rabbit myocytes; format: cell-based
Source text: This is consistent with prior studies showing locally generated cAMP from β-AR and its modulation by PDE3 occur in local subcellular domains that are not easily detected in whole cell lysates32.

[2] = tested on: normal and failing canine hearts; assay: Conscious dog pressure-volume hemodynamic analysis, normal and failing hearts; format: in vivo; conditions: dobutamine 10 μg/kg/min alone
Source text: Dogs are studied in the conscious state before and after inducing dilated cardiomyopathy by tachypacing for two weeks at 200 bpm. […]
Load insensitive indexes of contractility (dP/dtmax/IP and PRSW) increased.

plasma cAMP and cGMP = assay: Plasma cAMP and cGMP by ELISA in dogs; format: in vivo, dog
Protocol: Blood plasma is obtained from these animals, and cAMP and cGMP are assayed by ELISA.

[3] = agent alone: Iso 50 nM, Compound 1 up to 1 mM, IBMX 100 μM
[4] = agent added to non-saturating Iso

Structure (SMILES): COC(=O)CCc1ccc(OCC(O)CNC(C)C)cc1 (centres unmarked) [esmolol, esmolol HCl, reference compound]
- effect of blocker on Compound 1 responses [1]: unaltered
- block of cardiac responses to 10 μg/kg/min dobutamine ([1]; esmolol 0.5 mg/kg bolus then 0.05 mg/kg/min): effectively blocked
- impact of inhibitor pre-treatment alone on cardiovascular hemodynamics [1]: Neither inhibitor pre-treatment alone has a significant impact

Structure (SMILES): CC(C)Cn1c(=O)n(C)c(=O)c2[nH]cnc21 [IBMX]
- contraction/calcium decay time or rates (adult rabbit myocytes; [3]): increased
- peak Ca2+ transient (adult rabbit myocytes; [3]): did not alter peak calcium transients
- sarcomere shortening (adult rabbit myocytes; [3]): increased shortening

Structure (SMILES): CN(C(=O)CCCOc1ccc2[nH]c(=O)ccc2c1)C1CCCCC1 [Cil, cilostamide]
- whole cell cAMP (myocyte cAMP; agent added to Fsk): unaltered
- whole cell cAMP (myocyte cAMP; agent alone): did not measurably increase whole cell cAMP
- whole cell cAMP (myocyte cAMP; agent combined with Iso): did not measurably increase whole cell cAMP
- Ca2+ transient decay rate (adult rabbit myocytes; agent added to Fsk 1 μM): faster decay of the Ca2+ transient
- peak Ca2+ transient (adult rabbit myocytes; agent added to Fsk 1 μM): increase
- sarcomere shortening (adult rabbit myocytes; agent added to Fsk 1 μM): increase in sarcomere shortening
- peak-Ca2+ (adult rabbit myocytes; [4]): remained elevated over baseline
- sarcomere shortening (adult rabbit myocytes; [4]): further increased sarcomere shortening
- decay kinetics / relaxation times (adult rabbit myocytes): accelerated
- peak-Ca2+ transient (adult rabbit myocytes): rose
- percent sarcomere shortening (adult rabbit myocytes): rose

Structure (SMILES): CCCn1c(=O)c2[nH]c(-c3ccc(OCC(=O)Nc4ccc(C#N)cc4)cc3)nc2n(CCC)c1=O [MRS-1754, reference compound]
- effect of blocker on cardiovascular responses to Compound 1 (heart rate, contractility, vasodilation) ([1]; MRS-1754 1 mg/kg iv before Compound 1 0.1 mg/kg): eliminated all of the cardiovascular responses to Compound 1
- effect of blocker on Compound 1 responses [1]: fully blocked
- impact of inhibitor pre-treatment alone on cardiovascular hemodynamics [1]: Neither inhibitor pre-treatment alone has a significant impact

Structure (SMILES): C=C[C@@]1(C)CC(=O)[C@]2(O)[C@@]3(C)[C@@H](O)CCC(C)(C)[C@@H]3[C@H](O)[C@H](OC(C)=O)[C@@]2(C)O1 [forskolin]
- lowest (non-saturating) dose producing a modest but significant inotropic effect (adult rabbit myocytes; dose response): 1 µM

Structure (SMILES): CC(C)NCC(O)c1ccc(O)c(O)c1 (centres unmarked) [isoproterenol]
- whole cell cAMP (myocyte cAMP; agent alone): did not measurably increase whole cell cAMP
- decay kinetics / relaxation times (adult rabbit myocytes): quickened relaxation times
- peak-Ca2+ transient (adult rabbit myocytes): increased
- percent sarcomere shortening (adult rabbit myocytes): increased
- contraction/calcium decay time or rates (adult rabbit myocytes; [3]): accelerates the decay time of both
- peak Ca2+ transient (adult rabbit myocytes; [3]): increases
- sarcomere shortening (adult rabbit myocytes; [3]): increases

Structure (SMILES): CC(CCc1ccc(O)cc1)NCCc1ccc(O)c(O)c1 (centres unmarked) [Dobutamine, dobutamine, reference compound]
- PV loop area (stroke work) [2]: increased PV loop area
- plasma cAMP (plasma cAMP and cGMP; HF dogs, single drugs): not significantly changed
- plasma cGMP (plasma cAMP and cGMP; all conditions, normal and HF models): remains unchanged
- plasma cAMP (plasma cAMP and cGMP; normal dogs): augmented plasma cAMP

— patent US11839614B2, “Methods for treating or mitigating cardiotoxicity characterized by inhibition of adenosine A2 signaling and/or adenosine A2 receptor expression” (INTRA-CELLULAR THERAPIES, INC., priority 2018, dated 2023)
